Data from patent US10590115B2, “Tetrahydroquinazoline derivatives useful as anticancer agents” (PFIZER INC., priority 2018, dated 2020).

Experiments:
[1] = target: T1, GDP-loaded kRas (1-169) G12C, C51S, C80L, C118S (Homo sapiens, UniProt P01116, C118S/C51S/C80L/G12C); experiment: Mass Spectrometry Reactivity Assay (MSRA), covalent adduct with kRas G12C; format: binding; conditions: 0.5 h at room temperature; 5 μM KRas protein; typical final concentration of the compounds 10 μM
T1 construct: GDP-loaded kRas (1-169) G12C, C51S, C80L, C118S
Procedure: Mass Spectrometry Reactivity Assay (MSRA)
Compounds presented in the present invention covalently bind to kRas G12C using MSRA to detect a covalent adduct of the exemplary compound and kRas G12C. GDP-loaded kRas (1-169) G12C, C51S, C80L, C118S were diluted in the protein assay buffer 25 mM Hepes pH7.5, 200 mM NaCl, 5% glycerol to concentration of 5 μM and 20 μl of protein was transferred into 96-well plate. […] See K-Ras(G12C) inhibitors allosterically control GTP affinity and effector interactions; Ostrem J M, Peters U, Sos M L, Wells J A, Shokat K M; Nature. 2013, Nov. 28; 503(7477):548-51.
Exemplary compounds dissolved in DMSO were diluted 100-fold into solution containing 20 μl of 5 μM KRas protein in the 96-well plate to initiate the reaction. Mosquito (TPP Lab tech) liquid handling robot was used to add compounds to protein solution. Typical final concentration of the compounds was 10 μM. The plates were placed on a shaker for 1 min at RT, sealed and incubated at room temperature for specified time period. 5 μl of reaction mix was added to 10 μl of 0.2% formic acid stop solution and mixed well. Typical end points were 30, 120, 600 and 1440 min.
Data were collected using Waters Acquity H-class UPLC system/Xevo G2-XS TOF mass spectrometer. The protein was injected in their liquid phase onto a Bruker Microtrap protein column TR1/15109/03. The following buffers were used to set LC gradient: Buffer A: 0.2% formic acid H20; B: 0.2% formic acid CAN. The protein was eluted from the column using the following LC Gradient: 0-0.4 min, 10% B to 30% B; 0.4 min-2.4 min, to 90% B, 2.5 min, 10% B, 3 min, 10% B. Initial data analysis was performed using MaxEnt software right after data acquisition.
The standard auto processing function was used to define percentage of unmodified and modified kRas protein using MexEnt software right after data acquisition. The highest peak was defined as 100% while smaller peak as assigned the number defined by autoprocessing function. The percent of modification corresponding to modified with exemplary compound and unmodified KRas GDP-loaded kRas (1-169) G12C, C51S, C80L, C118S were exported to Xcel data analysis software.
The percent of modified protein at the defined concentration of exemplary compound was calculated using the following formula: % mod=Num of modified peak/Sum of modified+unmodified.

[2] = target: T2, KRAS G12C in H358 cells (Homo sapiens, UniProt P01116, G12C); experiment: H358 Cell Activity Assay (Raf-1 RBD capture of active Ras, MSD); format: cell-based; conditions: 6 hours treatment
T2 construct: endogenous in cells; host or cells: H358
Procedure: (§1) Compounds presented in the present invention lead to the accumulation of the GDP bound Ras upon treatment of human cancer cell line.
(§2) The accumulation of the GDP-bound KRAS G12C in cellular environment was measured based on the principle that KRAS G12C only binds to its downstream kinase; Raf-1 (MAP Kinase Kinase Kinase), when in its active-GTP bound state. In this state, Ras binded to a domain of Raf-1 kinase referred to as the Ras Binding Domain (RBD).
(§3) H358 cells were grown in RPMI 1640 medium (Gibco 11875) supplemented with 10% fetal bovine serum and 1% penicillin/streptomycin. Cells were seeded in 96-well tissue culture plates at a density of 40,000 cells/well and allowed to attach for 16-24 hours. Test compounds were prepared as a 10 mM stock in DMSO and serially diluted in 100% DMSO using a 3-fold dilution scheme. An intermediate 5× concentrated plate in complete growth medium was made and 25 μl/well was added to the 100 μl of cells for a final concentration of 0.1% DMSO. Each concentration of exemplary compound was tested in duplicate. The negative control wells were cells with control inhibitor at 10 μM, and the positive control wells were cells without drugs, DMSO only. Plates were incubated for 6 hours at 37° C., 5% CO2. Following treatment, cells were washed 3× with ice-cold PBS and 100 μl/well ice-cold 1× Assay/Lysis. Buffer with protease inhibitors was added (25 mM HEPES, pH 7.5, 150 mM NaCl, 1% NP-40, 10 mM MgCl2, 1 mM EDTA, 2% Glycerol). Following lysis samples were frozen at −80° C.
(§4) Raf-1 RBD (LJIC-1988A1) was diluted to 100 ng/well in PBS and 5 μl/well was spot coated onto MSD high bind SECTOR plates (L15XB). Plates were incubated at room temperature for 1 hour on an orbital shaker. Plates were washed with PBS/0.05% Tween-20 and 50 μl/well of thawed lysate samples were added, followed by 50 μl of 1% MSD Blocker A in PBS/0.05% Tween-20 (R93BA). Plates were incubated for 1 hour on an orbital shaker and washed with PBS/0.05% Tween-20. 25 μl/well of Anti-pan-Ras Antibody (Cell Biolabs 244003) diluted 1:3000 was added in 1% MSD Blocker A solution and plates were incubated for 1 hour on an orbital shaker and washed with PBS/0.05% Tween-20. SULFO-TAG goat anti-mouse secondary antibody (MSD R32AC) was diluted 1:500 in MSD Blocker A solution and added at 25 μL/well. Plates were incubated for 1 hour on an orbital shaker and washed with PBS/0.05% Tween-20. 150 μl/well of Read Buffer T (MSD R92TC) diluted 1:3 in H2O was added and plates were read on a Meso Scale Discovery Sector Imager S600.
(§5) KRAS signal was normalized to maximum inhibition and DMSO control values, and IC50 values were generated using a 4 parameter fit of the dose response curve. The decrease in IC50 reflects that the exemplary compound lead to a higher level of accumulation of GDP-bound KRAS G12C than another exemplary compounds at specific timepoint of treatment of cancer cell line.

[3] = target: T3, KRAS G12C in MiaPaCa2 cells (Homo sapiens, UniProt P01116, G12C); experiment: MiaPaCa2 Cell Activity Assay (Raf-1 RBD capture of active Ras, MSD); format: cell-based; conditions: MIAPaCa-2 cells, 6 hours treatment; assay limit is 30.0 μM
T3 construct: endogenous in cells; host or cells: MiaPaCa2
Procedure: MiaPaCa2 Cell Activity Assay
as §1, §2
as §3, with “MiaPaCa2” for “H358”, “DMEM” for “RPMI 1640”, “11995)” for “11875)”
as §4, §5

Row | SMILES | % Modification (0.5 h) [1] | IC50 [2] | IC50 [3]
1 | C=CC(=O)N1CCN(c2ncnc3c2C[C@@H](C)[C@H](c2c(C)ccc4[nH]ncc24)C3)CC1 [Example A5, 1-{4-[(6R,7R)-6-methyl-7-(5-methyl-1H-indazol-4-yl)-5,6,7,8-tetrahydroquinazolin-4-yl]piperazin-1-yl}prop-2-en-1-one] | 77% | 0.78 µM | 0.64 µM
2 | C=CC(=O)N1CCN(c2nc(N3CC(N(C)C)C3)nc3c2C[C@@H](C)[C@H](c2c(Cl)c(C)cc4[nH]ncc24)C3)CC1 [Example F7, 1-(4-{(6R,7R)-7-(5-chloro-6-methyl-1H-indazol-4-yl)-2-[3-(dimethylamino)azetidin-1-yl]-6-methyl-5,6,7,8-tetrahydroquinazolin-4-yl}piperazin-1-yl)prop-2-en-1-one] | 82% | 0.062 µM | 0.108 µM
3 | C=CC(=O)N1CCN(c2nc(N3CC(N(C)C)C3)nc3c2C[C@@H](C)[C@H](c2c(Cl)ccc4[nH]ncc24)C3)CC1 (relative stereo) [Example F5, 1-(4-{(6R,7R)-rel-7-(5-chloro-1H-indazol-4-yl)-2-[3-(dimethylamino)azetidin-1-yl]-6-methyl-5,6,7,8-tetrahydroquinazolin-4-yl}piperazin-1-yl)prop-2-en-1-one] | 72% | 0.145 µM | 0.154 µM
4 | C=CC(=O)N1CCN(c2nc(OC[C@H]3CCCN3C)nc3c2C[C@@H](C)[C@H](c2c(C)ccc4[nH]ncc24)C3)CC1 (relative stereo) [Example C10, 1-{4-[(6R,7R)-rel-6-methyl-7-(5-methyl-1H-indazol-4-yl)-2-{[(2R)-1-methylpyrrolidin-2-yl]methoxy}-5,6,7,8-tetrahydroquinazolin-4-yl]piperazin-1-yl}prop-2-en-1-one] | 80% | 0.129 µM | 0.236 µM
5 | C=CC(=O)N1CCN(c2nc(N3CC(N(C)C)C3)nc3c2C[C@@H](C)[C@H](c2c(Cl)c(C)cc4[nH]ncc24)C3)CC1 (relative stereo) [Example F6, 1-(4-{(6R,7R)-rel-7-(5-chloro-6-methyl-1H-indazol-4-yl)-2-[3-(dimethylamino)azetidin-1-yl]-6-methyl-5,6,7,8-tetrahydroquinazolin-4-yl}piperazin-1-yl)prop-2-en-1-one] | 83% | 0.116 µM | 0.126 µM

The remaining compounds from weak to strong by IC50 [2], led by results:

Row | % Modification (0.5 h) [1] | IC50 [2] | IC50 [3] | SMILES
6 | 66% | 0.521 µM | 0.26 µM | C=CC(=O)N1CCN(c2nc(OCCN(C)C)nc3c2C[C@@H](C)[C@H](c2c(C)ccc4[nH]ncc24)C3)CC1 [Example C6, 1-{4-[(6R,7R)-2-[2-(dimethylamino)ethoxy]-6-methyl-7-(5-methyl-1H-indazol-4-yl)-5,6,7,8-tetrahydroquinazolin-4-yl]piperazin-1-yl}prop-2-en-1-one]
7 | 59% | 0.36 µM | 0.429 µM | C=CC(=O)N1CCN(c2nc(N3CC(N(C)C)C3)nc3c2C[C@@H](C)[C@H](c2c(C)ccc4[nH]ncc24)C3)CC1 (relative stereo) [Example F1, 1-{4-[(6R,7R)-rel-2-[3-(dimethylamino)azetidin-1-yl]-6-methyl-7-(5-methyl-1H-indazol-4-yl)-5,6,7,8-tetrahydroquinazolin-4-yl]piperazin-1-yl}prop-2-en-1-one]
8 | 74% | 0.27 µM | 0.382 µM | C=CC(=O)N1CCN(c2nc(OC[C@@H]3CCCN3C)nc3c2C[C@@H](C)[C@H](c2c(C)ccc4[nH]ncc24)C3)CC1 [Example C9, 1-{4-[(6R,7R)-6-methyl-7-(5-methyl-1H-indazol-4-yl)-2-{[(2S)-1-methylpyrrolidin-2-yl]methoxy}-5,6,7,8-tetrahydroquinazolin-4-yl]piperazin-1-yl}prop-2-en-1-one]
9 | 72% | 0.102 µM | 0.068 µM | C=CC(=O)N1CCN(c2nc(N3CC(N(C)C)C3)nc3c2C[C@@H](C)[C@H](c2c(C)c(Cl)cc4[nH]ncc24)C3)CC1 [Example F14, 1-(4-{(6R,7R)-7-(6-chloro-5-methyl-1H-indazol-4-yl)-2-[3-(dimethylamino)azetidin-1-yl]-6-methyl-5,6,7,8-tetrahydroquinazolin-4-yl}piperazin-1-yl)prop-2-en-1-one]
